Assay results published in patent EP4635500A1, “THERAPEUTIC AGENT FOR BACTERIAL INFECTION” (Sumitomo Pharma Co., Ltd., priority 2022, dated 2024).
In brackets after ≈: the same amount, converted by molar mass. Like-named read-outs stand apart in the source and are kept apart here. Marks after values point to notes of the source that are not given here.

Assays:
[1] = molecular target: OXA-66 (Acinetobacter baumannii, UniProt Q58XD2); test: Ki,app against β-lactamase (Example 1, Table 1); assay type: biochemical; settings: OXA-66, class D; 30 min preincubation; n.d.: too low inhibitor activity at 100 µmol/L
Protocol: (§1) After stirring, the resultants were preincubated for 30 minutes at 37°C. The reporter substrate solution was incubated at 37°C for 15 minutes or more, dispensed at 100 µL/well, and measured for a change in absorbance by a microplate reader at 37°C. For each measured concentration of the positive control and the inhibitor, an initial rate (µmol/L/sec) was determined from a time to be analyzed and a change in product amount. […] Ki,app for each inhibitor concentration was calculated from the slope, the inhibitor concentration, an enzyme concentration, Km, and kcat using Expression 2. If the initial rate was determined at two or more concentrations for each inhibitor and a plurality of Ki,app could be obtained, an average value was used as the Ki,app for the inhibitor. t−tc = Km /Vmax x ([Inhibitor]/Ki,app)x Ln[S]0 /[S] [formula] Ki,app = [Inhibitor]x Km /(kcatx[Enzyme])x 1/slope [formula]
(§2) The experiment was performed in duplicate.

[2] = molecular target: OXA-72 (Acinetobacter baumannii, UniProt Q5XQU0); test: Ki,app against β-lactamase (Example 1, Table 1); assay type: biochemical; settings: OXA-72, class D; 30 min preincubation; n.d.: too low inhibitor activity at 100 µmol/L; *: value from one of three experiments
Protocol: as §1, §2

[3] = molecular target: OXA-65 (Acinetobacter baumannii, UniProt Q58XD3); test: Ki,app against β-lactamase (Example 1, Table 1); assay type: biochemical; settings: OXA-65, class D; 30 min preincubation; n.d.: too low inhibitor activity at 100 µmol/L
Protocol: as §1, §2

[4] = molecular target: OXA-23 (Acinetobacter baumannii, UniProt Q9L4P2); test: Ki,app against β-lactamase (Example 1, Table 1); assay type: biochemical
Protocol: as §1, §2

[5] = molecular target: OXA-48 (Klebsiella pneumoniae, UniProt Q6XEC0); test: Ki,app against β-lactamase (Example 1, Table 1); assay type: biochemical
Protocol: as §1, §2

[6] = molecular target: KPC-2 (Klebsiella pneumoniae, UniProt Q9F663); test: Ki,app against β-lactamase (Example 1, Table 1); assay type: biochemical
Protocol: as §1, §2

[7] = molecular target: KPC-3 (Klebsiella pneumoniae, UniProt Q9F663, H272Y); test: biochemical; assay type: biochemical
Protocol: as §1, §2

[8] = molecular target: KPC-38 (Klebsiella pneumoniae, UniProt Q9F663); assay type: biochemical; settings: read-out: Ki app; KPC-38, class A; 30 min preincubation; n.d.: too low inhibitor activity at 100 µmol/L
Protocol: as §1, §2

[9] = test system: anaerobic bacteria; settings: cited from earlier work
[10] = test system: anaerobic bacteria; test: microbe, parasite or virus in culture; assay type: cell-based
[11] = molecular target: OXA-24 (Acinetobacter baumannii, UniProt Q8RLA6); test: Ki,app against β-lactamase (Example 1, Table 1); assay type: biochemical; settings: OXA-24, class D; 30 min preincubation; n.d.: too low inhibitor activity at 100 µmol/L
Protocol: as §1, §2

[12] = molecular target: KPC-8 (Klebsiella pneumoniae, UniProt Q9F663, H272Y/V239G); test: biochemical
Protocol: as §1, §2

[13] = molecular target: KPC-6 (Klebsiella pneumoniae, UniProt Q9F663, V239G); test: biochemical
Protocol: as §1, §2

[14] = molecular target: CTX-M-14 (Escherichia coli, UniProt Q9L5C7); test: Ki,app against β-lactamase (Example 1, Table 1); assay type: biochemical; settings: CTX-M-14, class A; 30 min preincubation; n.d.: too low inhibitor activity at 100 µmol/L
Protocol: as §1, §2

[15] = molecular target: CTX-M-27 (Escherichia coli, UniProt Q840M4); test: Ki,app against β-lactamase (Example 1, Table 1); assay type: biochemical; settings: CTX-M-27, class A; 30 min preincubation; n.d.: too low inhibitor activity at 100 µmol/L
Protocol: as §1, §2

[16] = molecular target: SHV-12 (Klebsiella pneumoniae, UniProt P0A3M1, L31Q); test: Ki,app against β-lactamase (Example 1, Table 1); assay type: biochemical; settings: SHV-12, class A; 30 min preincubation; n.d.: too low inhibitor activity at 100 µmol/L
Protocol: as §1, §2

[17] = molecular target: KPC-33 (Klebsiella pneumoniae, UniProt Q9F663, D178Y); test: biochemical
Protocol: as §1, §2

[18] = molecular target: KPC-31 (Klebsiella pneumoniae, UniProt Q9F663, D178Y/H272Y); test: biochemical
Protocol: as §1, §2

[19] = molecular target: PDC-11 (Pseudomonas aeruginosa, UniProt P24735, form not given, species not given); assay type: biochemical; settings: PDC-11, class C; 30 min preincubation; n.d.: too low inhibitor activity at 100 µmol/L; read-out: Ki app
Protocol: as §1, §2

[20] = KPC-2, class A, 30 min preincubation, n.d.: too low inhibitor activity at 100 µmol/L, read-out: Ki app
[21] = KPC-3, class A, 30 min preincubation, n.d.: too low inhibitor activity at 100 µmol/L, read-out: Ki app

Structure (SMILES): NC(=O)[C@@H]1CC[C@@H]2CN1C(=O)N2OS(=O)(=O)O [Avibactam, avibactam]
- Ki [1]: 7350 ± 963 nM
- Ki [2]: 691 ± 63.8 nM
- Ki [3]: 5900 ± 1050 nM

Structure (SMILES): O=C(O)[C@H]1/C(=C/CO)O[C@@H]2CC(=O)N21 [Clavulanate, clavulanate]
- Ki [4]: 394 ± 169 nM
- Ki ([5]; OXA-48, class D, 30 min preincubation, n.d.: too low inhibitor activity at 100 µmol/L, read-out: Ki app): 103 ± 36.5 nM
- Ki [6]: 76.7 ± 38.3 nM
- Ki [7]: 128 ± 53.2 nM
- Ki [8]: 78.2 ± 20.5 nM

Structure (SMILES): Cc1ncc([N+](=O)[O-])n1CCO [MNZ]
- Acceptable MIC range of quality control (QC) strain ([9]; Bacteroides fragilis ATCC 25285 (QC strain)): 1 (0.25 to 1)* µg/mL
- Acceptable MIC range of quality control (QC) strain ([9]; Bacteroides thetaiotaomicron ATCC 29741 (QC strain)): 2 (0.5 to 2)* µg/mL
- MIC ([10]; ATCC29328, Finegoldia magna ATCC 29328, read-out: MIC): 2 µg/mL (≈ 11.7 µM)
- MIC ([10]; ATCC43055, Eggerthella lenta ATCC 43055, read-out: MIC): 1 µg/mL (≈ 5.84 µM)
- MIC ([10]; ATCC43255, Clostridioides difficile ATCC 43255, read-out: MIC): 1 µg/mL (≈ 5.84 µM)
- MIC ([10]; ATCCBAA1803, Clostridioides difficile ATCC BAA-1803, read-out: MIC): 2 µg/mL (≈ 11.7 µM)
- MIC ([10]; ATCCBAA1870, Clostridioides difficile ATCC BAA-1870, read-out: MIC): 1 µg/mL (≈ 5.84 µM)
- MIC ([10]; Bacteroides fragilis, ATCC25285): 1 µg/mL (≈ 5.84 µM)
- MIC ([10]; Bacteroides ovatus): 1 µg/mL (≈ 5.84 µM)
- MIC ([10]; Bacteroides thetaiotaomicron KUB2984, read-out: MIC): 1 µg/mL (≈ 5.84 µM)
- MIC ([10]; Bacteroides thetaiotaomicron, ATCC29741): 2 µg/mL (≈ 11.7 µM)
- MIC ([10]; Clostridium perfringens, ATCC13124): 2 µg/mL (≈ 11.7 µM)
- MIC ([10]; Cutibacterium acnes, ATCC11827): > 64 µg/mL
- MIC ([10]; Fusobacterium nucleatum, ATCC25586): ≤ 0.125 µg/mL
- MIC ([10]; Fusobacterium varium, ATCC27725): 0.5 µg/mL (≈ 2.92 µM)
- MIC ([10]; Lancefieldella rimae): 1 µg/mL (≈ 5.84 µM)
- MIC ([10]; Olsenella uli): 4 µg/mL (≈ 23.4 µM)
- MIC ([10]; Parvimonas micra KUB3000, read-out: MIC): 0.5 µg/mL (≈ 2.92 µM)
- MIC ([10]; Peptoniphilus asaccharolyticus, ATCC14963): 1 µg/mL (≈ 5.84 µM)
- MIC ([10]; Peptostreptococcus anaerobius, ATCC27337): 0.5 µg/mL (≈ 2.92 µM)
- MIC ([10]; Prevotella histicola): 2 µg/mL (≈ 11.7 µM)
- MIC ([10]; Prevotella intermedia): 1 µg/mL (≈ 5.84 µM)
- MIC ([10]; Prevotella melaninogenica): 1 µg/mL (≈ 5.84 µM)
- MIC ([10]; Schaalia odontolytica, ATCC17929): > 64 µg/mL
- MIC ([10]; Segatella buccae): 2 µg/mL (≈ 11.7 µM)

Structure (SMILES): CC1(C)[C@H](C(=O)O)N2C(=O)C[C@H]2S1(=O)=O [Sulbactam, sulbactam]
- Ki [4]: 681 ± 74.3 nM
- Ki [5]: 264 ± 116 nM
- Ki [6]: 420 ± 99.2 nM
- Ki [7]: 674 ± 239 nM
- Ki [8]: 405 ± 99.6 nM

Structure (SMILES): C[C@]1(Cn2ccnn2)[C@H](C(=O)O)N2C(=O)C[C@H]2S1(=O)=O [Tazobactam, tazobactam]
- Ki [6, 20]: 159 nM
- Ki [11]: 100 ± 45.6 nM
- Ki [7, 21]: 270 ± 80.8 nM
- Ki [12]: 52 ± 11.8 nM
- Ki [13]: 79.9 ± 16.5 nM
- Ki [8]: 112 ± 14.5 nM

Structure (SMILES): O=C(O)C[C@@H]1CC[C@H](NC(=O)Cc2cccs2)B(O)O1 [Vaborbactam, vaborbactam]
- Ki [14]: 392 ± 20.3 nM
- Ki [6, 20]: 63.7 nM
- Ki [15]: 351 ± 28.7 nM
- Ki [16]: 755 ± 103 nM
- Ki [7, 21]: 88.3 ± 30.3 nM
- Ki [17]: 4600 ± 437 nM
- Ki [12]: 114 ± 22.1 nM
- Ki [13]: 109 ± 21.7 nM
- Ki [18]: 13300 ± 8590 nM
- Ki [19]: 3860 ± 163 nM
- Ki [8]: 48.3 nM
